Laboratory results as given in BindingDB's records for doi:10.1016/s0960-894x(98)00116-4 (University of Waterloo, 1999).
*1 amine or outer side, *2 acyl side, *3 side chain or, on linkers, in order; H or OH if unused. Where a SMILES comes first, the peptide text is derived from it. The star is where a group is joined. γGlu = O=C(O)[CH](CCC(=O)[*:2])N[*:1]; NHOH = ON*

What was measured:
[1] = biological target: Lactoylglutathione lyase (Saccharomyces cerevisiae); test: Compound was evaluated for inhibition of Saccharomyces cerevisiae glyoxalase-I by using enzymatic assay at each of 6 substrate concentrations between 0.1 mM and 2.0 mM
[2] = biological target: Lactoylglutathione lyase (Saccharomyces cerevisiae); test: Compound was evaluated for inhibition of Saccharomyces cerevisiae glyoxalase-I, activity is determined with 0.5 mM substrate

| Ki [1] [µM] | IC50 [2] [µM] | SMILES |
| --- | --- | --- |
| 1.9 | – | CN(O)C(=O)CCC(NC(=O)CCC(N)C(=O)O)C(=O)NCC(=O)O (stereo not drawn) [2-Amino-4-[1-(carboxymethyl-carbamoyl)-3-(hydroxy-methyl-carbamoyl)-propylcarbamoyl]-butyric acid anion] |
| – | 1620 | CCOC(=O)CNC(=O)C(CCC(=O)NO)NC(=O)CCC(N)C(=O)O (stereo not drawn) [2-Amino-4-[1-(ethoxycarbonylmethyl-carbamoyl)-3-hydroxycarbamoyl-propylcarbamoyl]-butyric acid anion] (γGlu-Glu(NHOH)-Gly-OEt; configuration not given here) |
| 92.9 | – | NC(CCC(=O)NC(CCC(=O)NO)C(=O)NCC(=O)O)C(=O)O (stereo not drawn) [2-Amino-4-[1-(carboxymethyl-carbamoyl)-3-hydroxycarbamoyl-propylcarbamoyl]-butyric acid anion] (γGlu-Glu(NHOH)-Gly-OH; configuration not given here) |
